Results reported in US9284272B2, “Inhibitors of histone methyltransferase G9a” (AbbVie Inc., priority 2014, dated 2016).
Several values for one entry are separate records, joined by “and”; a condition that tells them apart may be missing. Equal entries are not always repeated. Where two headings read alike, the source gives them in different places.

Key:
[1] = Cytotoxicity, CellTiter Glo; format: cell-based; conditions: human, LNCap cells, 5-day proliferation
[2] = tested on: subcutaneous MV4;11 xenografts; assay: In vivo efficacy study, MV4;11 xenograft tumor volume; design: species or system SCID/bg mice; conditions: 30 mg/kg/day osmotic mini-pump for 14 days, compared to vehicle
Method: The efficacy of the compound of Example 7 was further examined by monitoring tumor volume during treatment with the compound of Example 7. Subcutaneous MV4;11 xenografts were implanted in SCID/bg mice and allowed to grow to 200 mm^3. […] Tumors were measured at the indicated time points (i.e., from 20 days to 55 days post-inoculation of the mice with the MV4;11 cells) and tumor growth was plotted as a function of time (FIG. 9).

[3] = Cytotoxicity, CellTiter Glo; format: cell-based; conditions: human, RS4;11 cells, 5-day proliferation
[4] = tested on: H3K9me2; assay: Cellular immunostaining (In-Cell Western), H3K9Me2 antibody immunofluorescence in PC3 cells; format: cell-based, human; conditions: for H3K9me2 % inhibition, single well of triplicate / inhibition at 0.03 µM / inhibition at 0.1 µM / inhibition at 0.3 µM / inhibition at 1 µM / inhibition at 3 µM: 72 hours; for inhibition at 0.03 µM / inhibition at 0.1 µM / inhibition at 0.3 µM / inhibition at 1 µM / inhibition at 3 µM: Homo sapiens, PC-3, 72 h
Method: For comparison, the known G9a inhibitor UNC0638 (see structure in FIG. 1) was evaluated in this study concurrently.
Human PC3 cells (ATCC, Manassas, Va.) were grown in RPMI+10% Fetal Bovine Serum and plated at 5,000 cells per well in a 96-well plate. The following day compounds and DMSO controls were added in triplicate at the indicated concentrations. Cells were fixed following incubation at 37° C. for 72 hours with 10% formaldehyde and then permeabilized with 0.1% Triton X-100. Cells were then washed with PBS and blocked with 0.1% BSA/PBS solution. Mouse anti-H3K9me2 (1:200, AbCam #1220, Cambridge, Mass.) and rabbit anti-Histone H3 (1:500, Cell Signaling Technology #4499, Danvers, Mass.) primary antibodies in 0.3% BSA were then added together to each well and incubated overnight at 4° C. The following day cells were washed in PBS-T (PBS with 0.1% Tween) followed by addition of anti-mouse (IR800) and anti-rabbit (IR700) secondary antibodies (LI-COR Biosciences, Lincoln, Nebr.) and incubated for one hour at room temperature. Cells were then washed with PBS-T followed by PBS and liquid was removed from all wells. The plate was scanned using both the 700 nm (anti-rabbit detection) and 800 nm (anti-mouse detection) channels on the Odyssey Imaging System (LI-COR Biosciences, Lincoln, Nebr.). Data was quantified using the LI-COR imaging suite and graphed as % inhibition H3K9me2/total H3/well compared to DMSO control wells. Wells treated in triplicate were averaged for each indicated concentration and error bars represent the standard deviation (n=3).

[5] = Cytotoxicity, CellTiter Glo; format: cell-based; conditions: human, DaoY cells, 7-day proliferation, neural crest derived lines
[6] = Cytotoxicity, CellTiter Glo; format: cell-based; conditions: A-201 cells, 12-day proliferation, neural crest derived lines
[7] = Cytotoxicity, CellTiter Glo; format: cell-based; conditions: human, SK-N-MC cells, 7-day proliferation, neural crest derived lines
[8] = Cytotoxicity, CellTiter Glo; format: cell-based; conditions: human, G-401 cells, 7-day proliferation, neural crest derived lines
[9] = Cytotoxicity, CellTiter Glo; format: cell-based; conditions: human, DU145 cells, 5-day proliferation
[10] = Cytotoxicity, CellTiter Glo; format: cell-based; conditions: human, MHH-65-1 cells, 7-day proliferation, neural crest derived lines
[11] = Cytotoxicity, CellTiter Glo; format: cell-based; conditions: human, CAPO-ES1 cells, 7-day proliferation, neural crest derived lines
[12] = tested on: human peripheral blood mononucleated cells (PBMCs); assay: Viability of PBMCs (Caspase-Glo 3/7, CellTiter Glo); format: cell-based; conditions: 0-10 uM, 48 h
Method: Following treatment, Caspase 3/7 activity (i.e., a marker of apoptosis) was assessed by the Caspase-Glo 3/7 assay system (FIG. 7A), and cell viability was assessed by CellTiter Glo assay (FIG. 7B).

[13] = tested on: H3K9me2; assay: PK/PD study, reduction in H3K9me2 in MV4;11 xenograft; format: in vivo, SCID/bg mice; conditions: for reduction in H3K9me2: 30 mg/kg/day osmotic mini-pump, relative to vehicle
Source text: Specifically, subcutaneous MV4;11 xenografts were implanted in SCID/bg mice and allowed to grow to 200 mm^3. […] In particular, by day 14, dimethylation of lysine 9 of histone H3 in the tumor tissue was reduced by 46 percent as compared to the vehicle.

[14] = Cytotoxicity, CellTiter Glo; format: cell-based; conditions: human, OPM2 cells, 5-day proliferation
[15] = Cytotoxicity, CellTiter Glo; format: cell-based; conditions: human, US2OS cells, 7-day proliferation, neural crest derived lines
[16] = Cytotoxicity, CellTiter Glo; format: cell-based; conditions: human, IMR-32 cells, 12-day proliferation, neural crest derived lines
[17] = Cytotoxicity, CellTiter Glo; format: cell-based; conditions: human, K562 cells, 5-day proliferation
[18] = tested on: HT1080 fibrosarcoma cells; assay: Cell viability of HT1080 fibrosarcoma cells; format: cell-based; conditions: 48 h, 0-10,000 nM
[19] = Cytotoxicity, CellTiter Glo; format: cell-based; conditions: human, KMS11 cells, 5-day proliferation
[20] = Cytotoxicity, CellTiter Glo; format: cell-based; conditions: human, RPMI8226 cells, 5-day proliferation
[21] = Cytotoxicity, CellTiter Glo; format: cell-based; conditions: human, PA-1 cells, 7-day proliferation, neural crest derived lines
[22] = Cytotoxicity, CellTiter Glo; format: cell-based; conditions: human, KMS12 cells, 5-day proliferation
[23] = Cytotoxicity, CellTiter Glo; format: cell-based; conditions: human, HL-60 cells, 5-day proliferation
[24] = Cytotoxicity, CellTiter Glo; format: cell-based; conditions: human, L-363 cells, 5-day proliferation

COc1cc2c(cc1OCCCN1CCCC1)N=C(N)C21CCC1 [Example 7, 5′-methoxy-6′-(3-(pyrrolidin-1-yl)propoxy)spiro[cyclobutane-1,3′-indol]-2′-amine]
IC50 at 5 day [1]: > 10 µM
tumor growth (tumor volume) [2]: growth inhibition of the tumors
IC50 at 5 day [3]: > 10 µM
reduction of cellular levels of H3K9Me2 ([4]; 3 μM): ~50%
H3K9me2 % inhibition, single well of triplicate ([4]; 0.03 uM): 15.08% and 10.18%
H3K9me2 % inhibition, single well of triplicate ([4]; 0.1 uM): 24.63% and 27.83%
H3K9me2 % inhibition, single well of triplicate ([4]; 0.3 uM): 34.47% and 40.35%
H3K9me2 % inhibition, single well of triplicate ([4]; 1 uM): 43.83% and 45.11%
H3K9me2 % inhibition, single well of triplicate ([4]; 3 uM): 47.77% and 48.92%
inhibition at 0.03 µM ([4]; 0.03 uM, n=3, read-out: H3K9me2 % inhibition, average): 12%
inhibition at 0.03 µM ([4]; 0.03 uM, read-out: H3K9me2 % inhibition, single well of triplicate): 10.8%
inhibition at 0.1 µM ([4]; 0.1 uM, n=3, read-out: H3K9me2 % inhibition, average): 24.3%
inhibition at 0.1 µM ([4]; 0.1 uM, read-out: H3K9me2 % inhibition, single well of triplicate): 20.6%
inhibition at 0.3 µM ([4]; 0.3 uM, n=3, read-out: H3K9me2 % inhibition, average): 37.1%
inhibition at 0.3 µM ([4]; 0.3 uM, read-out: H3K9me2 % inhibition, single well of triplicate): 36.6%
inhibition at 1 µM ([4]; 1 uM, n=3, read-out: H3K9me2 % inhibition, average): 44.4%
inhibition at 1 µM ([4]; 1 uM, read-out: H3K9me2 % inhibition, single well of triplicate): 44.2%
inhibition at 3 µM ([4]; 3 uM, n=3, read-out: H3K9me2 % inhibition, average): 47.5%
inhibition at 3 µM ([4]; 3 uM, read-out: H3K9me2 % inhibition, single well of triplicate): 45.9%
levels of total histone 3, H3K27Me3, H3K36Me2, H3K4me2, H3K4me3 and H3K9me3 ([4]; similar conditions): unaltered
cell viability as measured by total histone H3 ([4]; versus no treatment): No difference in cell viability
IC50 at 7 day [5]: > 10 µM
IC50 at 12 day [6]: > 10 µM
IC50 at 7 day [7]: 9.7 µM
IC50 at 7 day [8]: > 10 µM
IC50 at 5 day [9]: > 10 µM
IC50 at 7 day [10]: > 10 µM
IC50 at 7 day [11]: > 10 µM
effect on PBMC viability (Caspase 3/7 activity and CellTiter Glo) [12]: no effect on cell viability
reduction in H3K9me2 ([13]; Day 2): 0%
reduction in H3K9me2 ([13]; Day 7): 25%
reduction in H3K9me2 ([13]; Day 14): 46%
reduction of dimethylation of lysine 9 of histone H3 in the tumor tissue ([13]; day 14, compared to vehicle): 46%
IC50 at 5 day [14]: > 10 µM
IC50 at 7 day [15]: > 10 µM
IC50 at 12 day [16]: > 10 µM
IC50 at 5 day [17]: > 10 µM
cytotoxicity compared with UNC0638 [18]: reduced cytotoxicity
IC50 at 5 day [19]: > 10 µM
IC50 at 5 day [20]: > 10 µM
IC50 at 7 day [21]: > 10 µM
IC50 at 5 day [22]: > 10 µM
IC50 at 5 day [23]: > 10 µM
IC50 at 5 day [24]: > 10 µM
